Legend:
[1] = target: Cyclin-dependent kinase 4 (Homo sapiens, UniProt P11802); assay: Selectivity interaction (Kinase panel (33PanQinase(R) Activity Assay)) EUB0000877a CDK4
[2] = target: Mitogen-activated protein kinase kinase kinase 10 (Homo sapiens) (UniProt Q02779); assay: Selectivity interaction (KinomeScan (DiscoverX)) EUB0000607a MAP3K10; settings: at 10 µM
[3] = target: Phosphatidylinositol 4,5-bisphosphate 3-kinase catalytic subunit gamma isoform (Homo sapiens) (UniProt P48736); assay: Selectivity interaction (Panel of kinases, GPCRs, ion channels and transporters (enzymatic assay)) EUB0000266bCl PIK3CG
[4] = target: Serine/threonine-protein kinase Chk2 (Homo sapiens) (UniProt O96017); assay: Selectivity interaction (Upstate Kinase Profiler service (Millipore)) EUB0000056c CHEK2; settings: at 1 µM
[5] = target: T1, Ephrin type-A receptor 1 (Homo sapiens) (UniProt P21709); settings: at 10 µM
T1 sequence (whole entry): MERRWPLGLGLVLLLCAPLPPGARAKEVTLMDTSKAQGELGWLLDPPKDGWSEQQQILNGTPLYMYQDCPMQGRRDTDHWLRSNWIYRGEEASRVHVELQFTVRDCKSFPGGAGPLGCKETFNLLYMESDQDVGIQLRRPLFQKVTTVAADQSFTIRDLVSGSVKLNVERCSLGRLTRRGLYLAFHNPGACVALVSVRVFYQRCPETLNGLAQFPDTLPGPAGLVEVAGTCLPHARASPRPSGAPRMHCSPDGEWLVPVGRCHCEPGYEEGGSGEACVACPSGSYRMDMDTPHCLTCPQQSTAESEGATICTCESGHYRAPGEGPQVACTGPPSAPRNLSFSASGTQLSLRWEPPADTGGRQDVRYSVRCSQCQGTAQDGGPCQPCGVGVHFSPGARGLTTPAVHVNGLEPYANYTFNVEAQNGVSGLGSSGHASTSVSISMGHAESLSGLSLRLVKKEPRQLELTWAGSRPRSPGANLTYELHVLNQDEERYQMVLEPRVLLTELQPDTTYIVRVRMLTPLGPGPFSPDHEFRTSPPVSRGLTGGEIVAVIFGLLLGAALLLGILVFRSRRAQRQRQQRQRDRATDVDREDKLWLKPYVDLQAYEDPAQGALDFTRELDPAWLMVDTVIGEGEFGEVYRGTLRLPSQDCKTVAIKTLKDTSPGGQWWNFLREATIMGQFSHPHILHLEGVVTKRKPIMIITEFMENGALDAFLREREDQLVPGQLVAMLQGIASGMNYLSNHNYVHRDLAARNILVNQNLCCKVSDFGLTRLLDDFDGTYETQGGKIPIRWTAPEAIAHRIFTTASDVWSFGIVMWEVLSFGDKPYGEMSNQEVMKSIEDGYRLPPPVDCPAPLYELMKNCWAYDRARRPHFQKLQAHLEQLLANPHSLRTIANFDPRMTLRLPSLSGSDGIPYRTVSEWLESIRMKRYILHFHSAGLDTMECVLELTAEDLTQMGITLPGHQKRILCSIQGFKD

[6] = target: T2, Dual specificity mitogen-activated protein kinase kinase 6 (Homo sapiens) (UniProt P52564); assay: Selectivity interaction (ActivX KiNativ screen (kinase selectivity in THP-1 cell lysates)) EUB0000639a MAP2K6; format: subcellular; settings: lysate, at 1 µM
T2 sequence (whole entry): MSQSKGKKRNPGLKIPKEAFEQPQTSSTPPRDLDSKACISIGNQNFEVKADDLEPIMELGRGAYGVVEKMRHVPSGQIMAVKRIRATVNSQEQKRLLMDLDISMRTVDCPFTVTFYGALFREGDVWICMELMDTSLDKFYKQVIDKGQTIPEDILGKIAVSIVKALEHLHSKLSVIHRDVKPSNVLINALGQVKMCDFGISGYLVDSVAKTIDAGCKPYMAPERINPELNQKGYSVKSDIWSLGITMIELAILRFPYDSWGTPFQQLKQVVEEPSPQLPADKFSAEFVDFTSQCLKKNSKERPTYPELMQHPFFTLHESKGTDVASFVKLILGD

[7] = target: Serine/threonine-protein kinase PAK 3 (Homo sapiens) (UniProt O75914); assay: Selectivity interaction (KinaseProfiler screening (Millipore)) EUB0000601a PAK3; settings: at 3 µM
[8] = target: Tyrosine-protein kinase receptor UFO (Homo sapiens) (UniProt P30530); assay: Selectivity interaction (KinomeScan (DiscoverX)) EUB0000595a AXL; settings: at 10 µM
[9] = target: Protein kinase C beta type (Homo sapiens, UniProt P05771); assay: Selectivity interaction (Kinase screening (Upstate/Millipore)) EUB0000604a PRKCB
Sequence of Protein kinase C beta type (P05771 2-671 limits assumed): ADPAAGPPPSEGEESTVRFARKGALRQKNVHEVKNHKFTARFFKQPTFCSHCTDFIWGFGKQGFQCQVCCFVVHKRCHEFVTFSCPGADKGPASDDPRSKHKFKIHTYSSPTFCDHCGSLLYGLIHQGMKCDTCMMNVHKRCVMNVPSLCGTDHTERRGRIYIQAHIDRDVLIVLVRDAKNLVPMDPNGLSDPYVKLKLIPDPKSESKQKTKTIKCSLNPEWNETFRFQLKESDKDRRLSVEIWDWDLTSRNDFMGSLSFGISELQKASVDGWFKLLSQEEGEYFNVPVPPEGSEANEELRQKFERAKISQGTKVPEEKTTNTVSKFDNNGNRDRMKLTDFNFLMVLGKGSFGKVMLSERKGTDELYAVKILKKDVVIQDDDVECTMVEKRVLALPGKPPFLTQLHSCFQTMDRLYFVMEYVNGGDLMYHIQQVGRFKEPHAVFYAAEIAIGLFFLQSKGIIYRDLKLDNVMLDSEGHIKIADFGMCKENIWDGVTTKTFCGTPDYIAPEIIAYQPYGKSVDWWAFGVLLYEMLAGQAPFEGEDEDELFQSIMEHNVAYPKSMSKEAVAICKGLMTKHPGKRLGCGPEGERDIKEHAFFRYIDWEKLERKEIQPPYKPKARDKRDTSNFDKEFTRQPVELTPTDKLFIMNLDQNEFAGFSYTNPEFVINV

[10] = target: Casein kinase II subunit alpha (Homo sapiens, UniProt P68400); assay: Selectivity interaction (Kinase screening (Upstate/Millipore)) EUB0000604a CSNK2A1
[11] = target: Dual specificity protein kinase CLK1 (Homo sapiens, UniProt P49759); assay: Selectivity interaction (Ambit KINOMEscan and KiNATiv profiling in Jurkat cells) EUB0000090b CLK1; format: cell-based; settings: at 1 µM
Sequence of Dual specificity protein kinase CLK1 (P49759 whole entry, looked up): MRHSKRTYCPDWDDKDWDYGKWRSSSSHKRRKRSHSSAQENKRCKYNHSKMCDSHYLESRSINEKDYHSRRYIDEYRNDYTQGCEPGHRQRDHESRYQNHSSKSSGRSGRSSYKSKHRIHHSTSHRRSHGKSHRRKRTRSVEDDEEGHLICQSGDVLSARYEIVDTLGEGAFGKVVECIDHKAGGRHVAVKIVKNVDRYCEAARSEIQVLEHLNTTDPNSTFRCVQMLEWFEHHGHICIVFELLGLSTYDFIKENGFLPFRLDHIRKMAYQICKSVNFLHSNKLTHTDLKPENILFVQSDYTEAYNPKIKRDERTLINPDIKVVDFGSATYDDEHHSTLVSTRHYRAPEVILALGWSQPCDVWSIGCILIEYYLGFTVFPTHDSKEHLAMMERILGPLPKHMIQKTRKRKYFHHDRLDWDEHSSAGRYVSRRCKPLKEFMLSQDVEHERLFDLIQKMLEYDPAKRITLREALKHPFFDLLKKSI

[12] = target: Serine/threonine-protein kinase Nek7 (Homo sapiens) (UniProt Q8TDX7); assay: Selectivity interaction (KinomeScan (DiscoverX)) EUB0000045b NEK7
Sequence of Serine/threonine-protein kinase Nek7 (Homo sapiens) (Q8TDX7 whole entry, looked up): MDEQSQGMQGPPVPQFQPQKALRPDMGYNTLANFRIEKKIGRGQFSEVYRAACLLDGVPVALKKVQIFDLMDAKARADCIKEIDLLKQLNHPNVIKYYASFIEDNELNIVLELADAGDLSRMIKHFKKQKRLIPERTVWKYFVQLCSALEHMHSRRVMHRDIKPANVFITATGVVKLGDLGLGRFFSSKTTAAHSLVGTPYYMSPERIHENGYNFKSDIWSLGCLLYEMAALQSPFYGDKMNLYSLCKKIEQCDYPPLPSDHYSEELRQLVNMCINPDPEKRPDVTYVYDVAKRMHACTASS

[13] = target: Cyclin-dependent kinase 5 (Homo sapiens, UniProt Q00535); assay: Selectivity interaction (KinomeScan (DiscoverX)) EUB0000045b CDK5
Sequence of Cyclin-dependent kinase 5 (Q00535 whole entry, looked up): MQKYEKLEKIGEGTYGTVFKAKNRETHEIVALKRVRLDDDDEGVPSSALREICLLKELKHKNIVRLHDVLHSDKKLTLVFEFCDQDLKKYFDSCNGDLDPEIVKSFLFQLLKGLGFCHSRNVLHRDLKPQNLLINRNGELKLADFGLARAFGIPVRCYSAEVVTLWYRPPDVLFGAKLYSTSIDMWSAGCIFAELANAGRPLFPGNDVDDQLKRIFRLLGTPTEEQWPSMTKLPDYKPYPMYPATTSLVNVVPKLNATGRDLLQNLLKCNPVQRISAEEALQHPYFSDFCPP

[14] = target: Eukaryotic translation initiation factor 2-alpha kinase 1 (Homo sapiens) (UniProt Q9BQI3); assay: Selectivity interaction (KinomeScan (DiscoverX)) EUB0000045b EIF2AK1
Sequence of Eukaryotic translation initiation factor 2-alpha kinase 1 (Homo sapiens) (Q9BQI3 whole entry): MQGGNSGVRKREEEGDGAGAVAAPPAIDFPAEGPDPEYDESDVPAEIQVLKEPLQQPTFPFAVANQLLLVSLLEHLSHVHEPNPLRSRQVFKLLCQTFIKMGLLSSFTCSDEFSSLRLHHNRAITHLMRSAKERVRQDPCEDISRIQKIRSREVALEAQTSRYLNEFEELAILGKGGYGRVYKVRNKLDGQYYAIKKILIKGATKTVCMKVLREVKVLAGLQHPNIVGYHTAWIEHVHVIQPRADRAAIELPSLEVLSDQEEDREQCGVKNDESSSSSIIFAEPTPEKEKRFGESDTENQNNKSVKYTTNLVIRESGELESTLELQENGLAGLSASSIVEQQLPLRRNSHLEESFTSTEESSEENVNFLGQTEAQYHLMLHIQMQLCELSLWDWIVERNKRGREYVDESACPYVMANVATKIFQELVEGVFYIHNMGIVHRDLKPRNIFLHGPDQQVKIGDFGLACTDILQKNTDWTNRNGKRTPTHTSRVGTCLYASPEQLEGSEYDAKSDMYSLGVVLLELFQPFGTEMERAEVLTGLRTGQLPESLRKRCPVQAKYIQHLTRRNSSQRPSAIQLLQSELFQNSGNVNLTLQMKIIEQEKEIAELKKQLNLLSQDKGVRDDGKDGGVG

[15] = target: Cyclin-dependent kinase 9 (Homo sapiens, UniProt P50750); assay: Selectivity interaction (KinomeScan (DiscoverX)) EUB0000229b CDK9; settings: at 10 µM
[16] = target: T3, Casein kinase I isoform alpha-like (Homo sapiens) (UniProt Q8N752); assay: Selectivity interaction (KinomeScan (DiscoverX)) EUB0000229b CSNK1A1L; settings: at 10 µM
T3 sequence (whole entry): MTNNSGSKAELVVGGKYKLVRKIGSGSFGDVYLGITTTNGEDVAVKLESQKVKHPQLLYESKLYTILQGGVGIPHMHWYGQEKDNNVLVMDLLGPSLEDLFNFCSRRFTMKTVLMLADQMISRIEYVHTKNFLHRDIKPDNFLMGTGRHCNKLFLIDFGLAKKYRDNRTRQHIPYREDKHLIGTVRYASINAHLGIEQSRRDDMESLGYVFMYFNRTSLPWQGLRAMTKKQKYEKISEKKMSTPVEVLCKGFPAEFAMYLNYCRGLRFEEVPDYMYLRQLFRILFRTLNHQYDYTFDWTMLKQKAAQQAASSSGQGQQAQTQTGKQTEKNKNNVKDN

[17] = target: Serine/threonine-protein kinase Nek7 (Homo sapiens) (UniProt Q8TDX7); assay: Selectivity interaction (KinomeScan (DiscoverX)) EUB0000092b NEK7; settings: at 10 µM
[18] = target: Angiopoietin-1 receptor (Homo sapiens) (UniProt Q02763); settings: at 10 µM
Sequence of Angiopoietin-1 receptor (Homo sapiens) (Q02763 whole entry, canonical isoform): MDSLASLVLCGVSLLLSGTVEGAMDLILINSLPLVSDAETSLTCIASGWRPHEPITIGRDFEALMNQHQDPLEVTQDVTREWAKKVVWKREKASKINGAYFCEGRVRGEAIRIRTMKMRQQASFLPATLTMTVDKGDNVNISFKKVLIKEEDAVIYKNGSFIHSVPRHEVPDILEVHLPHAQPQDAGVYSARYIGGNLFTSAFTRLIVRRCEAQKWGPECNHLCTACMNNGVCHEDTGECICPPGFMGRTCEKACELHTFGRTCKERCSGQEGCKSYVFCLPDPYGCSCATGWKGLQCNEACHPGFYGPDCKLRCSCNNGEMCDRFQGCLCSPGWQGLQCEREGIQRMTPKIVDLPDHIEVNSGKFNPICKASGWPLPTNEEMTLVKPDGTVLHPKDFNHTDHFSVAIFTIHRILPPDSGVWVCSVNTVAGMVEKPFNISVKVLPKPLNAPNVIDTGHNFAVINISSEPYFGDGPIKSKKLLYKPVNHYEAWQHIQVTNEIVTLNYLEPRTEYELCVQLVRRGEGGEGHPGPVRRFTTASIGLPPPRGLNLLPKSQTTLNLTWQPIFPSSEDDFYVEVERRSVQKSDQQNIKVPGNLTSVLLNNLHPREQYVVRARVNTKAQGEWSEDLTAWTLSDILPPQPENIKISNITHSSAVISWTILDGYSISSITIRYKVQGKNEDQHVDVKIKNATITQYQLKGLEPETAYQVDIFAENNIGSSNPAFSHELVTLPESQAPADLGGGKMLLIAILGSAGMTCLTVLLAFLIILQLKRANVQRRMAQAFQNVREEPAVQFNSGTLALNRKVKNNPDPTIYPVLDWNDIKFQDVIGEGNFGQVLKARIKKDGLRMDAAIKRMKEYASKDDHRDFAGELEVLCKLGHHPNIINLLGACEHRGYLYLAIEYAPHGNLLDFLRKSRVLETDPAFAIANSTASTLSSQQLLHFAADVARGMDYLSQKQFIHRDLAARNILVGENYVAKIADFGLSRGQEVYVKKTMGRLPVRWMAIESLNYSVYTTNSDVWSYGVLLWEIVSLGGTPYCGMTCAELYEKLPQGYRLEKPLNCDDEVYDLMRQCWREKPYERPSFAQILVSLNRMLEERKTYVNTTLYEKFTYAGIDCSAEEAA

[19] = target: Casein kinase I isoform epsilon (Homo sapiens, UniProt P49674); settings: at 10 µM
Sequence of Casein kinase I isoform epsilon (P49674 whole entry, looked up, canonical isoform): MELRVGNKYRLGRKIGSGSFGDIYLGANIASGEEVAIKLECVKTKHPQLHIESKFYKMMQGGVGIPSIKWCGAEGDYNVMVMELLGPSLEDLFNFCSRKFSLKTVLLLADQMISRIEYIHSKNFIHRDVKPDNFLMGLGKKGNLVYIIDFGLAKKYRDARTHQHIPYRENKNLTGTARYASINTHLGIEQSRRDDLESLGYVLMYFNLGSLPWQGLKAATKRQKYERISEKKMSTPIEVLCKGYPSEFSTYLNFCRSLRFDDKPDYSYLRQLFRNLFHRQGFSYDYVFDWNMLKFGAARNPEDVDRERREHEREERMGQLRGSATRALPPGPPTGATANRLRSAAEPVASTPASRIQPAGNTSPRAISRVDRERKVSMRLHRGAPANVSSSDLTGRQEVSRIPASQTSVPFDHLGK

Sequence of Mitogen-activated protein kinase kinase kinase 10 (Homo sapiens) (Q02779 whole entry, looked up, canonical isoform): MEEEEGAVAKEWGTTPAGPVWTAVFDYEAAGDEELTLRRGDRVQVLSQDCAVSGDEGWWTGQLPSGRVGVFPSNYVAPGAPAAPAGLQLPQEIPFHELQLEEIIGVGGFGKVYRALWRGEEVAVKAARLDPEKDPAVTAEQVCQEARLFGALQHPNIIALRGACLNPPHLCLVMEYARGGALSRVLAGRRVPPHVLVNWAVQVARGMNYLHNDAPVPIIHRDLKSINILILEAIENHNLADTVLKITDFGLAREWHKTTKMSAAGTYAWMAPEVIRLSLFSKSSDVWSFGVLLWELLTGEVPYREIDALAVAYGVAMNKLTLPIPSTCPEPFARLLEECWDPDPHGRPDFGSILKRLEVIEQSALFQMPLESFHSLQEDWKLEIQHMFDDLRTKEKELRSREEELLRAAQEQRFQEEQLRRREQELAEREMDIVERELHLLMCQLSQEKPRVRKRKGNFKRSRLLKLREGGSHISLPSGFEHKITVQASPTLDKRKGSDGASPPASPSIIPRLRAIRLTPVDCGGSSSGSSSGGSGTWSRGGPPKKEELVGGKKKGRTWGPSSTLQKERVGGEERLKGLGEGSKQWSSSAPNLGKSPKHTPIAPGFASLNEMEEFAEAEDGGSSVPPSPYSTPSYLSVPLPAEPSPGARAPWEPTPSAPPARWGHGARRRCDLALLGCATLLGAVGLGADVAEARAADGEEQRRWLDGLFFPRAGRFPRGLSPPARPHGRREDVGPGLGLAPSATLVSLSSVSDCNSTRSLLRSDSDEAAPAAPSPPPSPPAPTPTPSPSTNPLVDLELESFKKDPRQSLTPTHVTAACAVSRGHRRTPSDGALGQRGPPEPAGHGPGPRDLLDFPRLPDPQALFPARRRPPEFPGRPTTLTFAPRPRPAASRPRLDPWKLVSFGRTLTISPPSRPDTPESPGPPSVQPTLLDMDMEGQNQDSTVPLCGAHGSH

CCC(=O)N1CC[C@H](Nc2ncnc3c2CN(c2cnc(OC)c(C(F)(F)F)c2)CC3)C1 [LENIOLISIB]
IC50 [1]: > 10 µM

CNC(=O)Nc1ccc(-c2nc(N3CC4CCC(C3)O4)c3cnn(C4CCC5(CC4)OCCO5)c3n2)cc1
% of control [2]: 100%

CCn1c(-c2nc3cc(C(=O)N4CCCC(N)C4)ccc3n2C)cc2ccccc21 (configuration not stated)
pXC50 [3]: < 4.5 M

Cc1ccc(-c2ccc3c(ccc4sc5c(c43)NC[C@@H](C)NC5=O)n2)cn1
% of inhibition [4]: 44%

CCN(CC)CCCCNc1ncc2cc(-c3cc(OC)cc(OC)c3)c(NC(=O)NC(C)(C)C)nc2n1
% of control [5]: 100%

CC[C@@H]1[C@H](F)C(=O)N[C@@H]1COc1nccc2cc(C(N)=O)c(OC)cc12 [ZIMLOVISERTIB]
% of inhibition [6]: 17%

CCc1cc(Nc2nccc(-c3c(-c4ccc(OC)c(C(=O)Nc5c(F)cccc5F)c4)nc4ccccn34)n2)c(OC)cc1N1CCC(N2CCN(S(C)(=O)=O)CC2)CC1
% of inhibition [7]: 53%

COCC(=O)NC/C=C/c1ccc2ncnc(Nc3ccc(Oc4ccc(C)nc4)c(C)c3)c2c1 [CP-724714]
% of control [8]: 68%

Cc1cnc(Nc2ccc(F)cc2Cl)nc1-c1c[nH]c(C(=O)N[C@H](CO)c2cccc(Cl)c2)c1
% of inhibition [9]: 4%
% of inhibition [10]: 0%

CN(C)C/C=C/C(=O)Nc1ccc(C(=O)N2CCCC(Nc3ncc(Cl)c(-c4c[nH]c5ccccc45)n3)C2)cc1 (configuration not stated)
% of control [11]: 62%

C=CC(=O)Nc1cc(-n2c(=O)ccc3cnc4ccc(-c5ccc(NS(C)(=O)=O)cc5)cc4c32)ccc1C
% of control ([12]; at 1 µM): 100%
% of control ([12]; at 10 µM): 71%
% of control ([13]; at 1 µM): 88%
% of control ([13]; at 10 µM): 100%
% of control ([14]; at 1 µM): 100%
% of control ([14]; at 10 µM): 100%

COc1cc(N(C)c2ccnc3ccc(C(F)(F)F)cc23)cc(OC)c1OC
% binding [15]: 81%
% binding [16]: 85%

CCC(=O)N1CCN(c2ccc(-n3c(=O)ccc4cnc5ccc(-c6cnc7ccccc7c6)cc5c43)cc2C(F)(F)F)CC1
% of control [17]: 90%

Cc1cc([C@@H](C)Nc2ccccc2C(=O)O)c2nc(N3CCOCC3)cc(=O)n2c1 [AZD-6482]
% of control [18]: 100%
% of control [19]: 98%
